From patent publication US8476255B2, “Histone deacetylase inhibitors” (Orchid Chemicals & Pharmaceuticals Limited, priority 2007, dated 2013) come the findings set out here.

Read-outs that look alike come from different tables or passages of the source.

In general, GI50 refers to the concentration giving 50% growth inhibition. As usually defined, the LC50 is the concentration lethal to half of the exposed cells or organisms. For orientation: IC50 means the concentration that inhibits the measured activity by half.

One experiment deals with NCIH460 (lung) cells. In words: Anti-cancer screen (MTT), NCIH460. In kind it is cell-based. Particulars: Homo sapiens; for GI50: read-out: Cell growth inhibition NCIH460 (Lung) GI50; for LC50: read-out: Cell growth inhibition NCIH460 (Lung) LC50; for IC (TGI): read-out: Cell growth inhibition NCIH460 (Lung) TGI. The gist of the method:
(§1)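 5×10^4 cells/mL, DMEM + 10% FBS, 24 h attach, 37 °C/5% CO2. Cpds 0.01–100 μM (5 conc., triplicate), 48 h. MTT 3 h → DMSO → A570; T0 plate read at dosing.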

The test system of another experiment is HCT 116 (colon) cells. The experiment is described as follows: Anti-cancer screen (MTT), HCT 116. The class given is cell-based. Particulars: Homo sapiens; for GI50: read-out: Cell growth inhibition HCT116 (Colon) GI50; for CC50: read-out: Cell growth inhibition HCT116 (Colon) LC50; for IC (TGI): read-out: Cell growth inhibition HCT116 (Colon) TGI. The gist of the method: as §1

The subject of another experiment is U251 (glioma) cells. In words: Anti-cancer screen (MTT), U251. The class given is cell-based. The note with it: Homo sapiens; for GI50: read-out: Cell growth inhibition U251 (Glioma) GI50; for LC50 (concentration giving 50% net cell kill relative to the time-zero cell count): read-out: Cell growth inhibition U251 (Glioma) LC50; for IC (TGI): read-out: Cell growth inhibition U251 (Glioma) TGI. A digest of the protocol:
as §1

The subject of experiment [1] is NCIH460, HCT116 and U251 cells. In words: Anti-cancer screen, mean GI50 over cell lines. Particulars: read-out: Cell growth inhibition Mean GI50. In kind it is cell-based. A digest of the protocol: as §1
For experiment [2], the system named is HDAC (Mouse Liver Extract). The experiment is described as follows: HDAC inhibition assay using Boc-Lys(Ac)-AMC substrate. Particulars: mouse liver enzyme. In kind it is biochemical. A digest of the protocol:
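Boc-Lys(Ac)-AMC substrate incubated with mouse liver extract as HDAC source, 5 min preincubation then 30 min at 37° C. Trypsin stop solution added (37° C., 15-30 min) to release AMC, read at ex 360/em 460 nm; buffer-only and substrate-only wells as blanks.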

[3] abbreviates: NCI-H460, NCIH460, 48 hours, MTT.

As for `CS(=O)(=O)c1ccc(/C=C(/C(=O)NCCCCCC(=O)NO)c2ccc(F)cc2)cc1` [Compound 87, 6-(2-(4-Fluorophenyl)-3-(4-methylsulfonylphenyl)acrylamido)-N-hydroxy hexanamide], in the experiment on NCIH460 (lung) cells (setting [3]), the GI50 was above 100 µM, the LC50 is above 100 µM and the IC (TGI) is above 100 µM. Further, in the experiment with HCT 116 (colon) cells (HCT-116, HCT116, 48 hours, MTT), the concentration for 50% growth inhibition (GI50) was determined as 44 µM, the CC50 is above 100 µM and the IC (TGI) is 88 µM. Moreover, in the experiment on U251 (glioma) cells (U-251, U251, 48 hours, MTT), the GI50 stood at 20 µM, the LC50 (concentration giving 50% net cell kill relative to the time-zero cell count) was above 100 µM and the IC (TGI) was above 100 µM. Moreover, the GI50 in experiment [1] (mean over cell lines) was above 100 µM. In experiment [2], the “HDAC inhibition % (1 μM)” value is reported as 43.6% and the “HDAC inhibition % (10 μM)” value amounted to 81.6%.

On to `CSc1ccc(/C=C(/C(=O)NCCCCCC(=O)NO)c2ccc(C)cc2)cc1` [Compound 96, 6-(2-(4-Methylphenyl)-3-(4-methylthiophenyl)acrylamido)-N-hydroxy hexanamide], for which, in the experiment on NCIH460 (lung) cells (NCI-H460, 48 h), the GI50 stood at 8 µM, the LC50 was 60 µM and the IC (TGI) was determined as 21 µM. Besides, in the experiment with HCT 116 (colon) cells (HCT-116, 48 h), the GI50 was 6 µM, the CC50 was above 100 µM and the IC (TGI) was determined as 27 µM. In the experiment with U251 (glioma) cells (U-251, 48 h), the concentration for 50% growth inhibition (GI50) is 8 µM, the LC50 (concentration giving 50% net cell kill relative to the time-zero cell count) came to 60 µM and the IC (TGI) turned out to be 22 µM. Further, the GI50 in experiment [1] was 7.3 µM. In experiment [2], the “HDAC inhibition % (1 μM)” value came out at 84.1%, the “HDAC inhibition % (10 μM)” value turned out to be 98.5% and inhibition was half-maximal at 10 nM (IC50).

Turning to `CSc1ccc(/C=C(/C(=O)NCc2ccc(C(=O)Nc3ccccc3N)cc2)c2ccsc2)cc1` [Compound 26, N-(2-Aminophenyl)-4-((3-(4-methylthiophenyl)-2-(thiophen-3-yl)acrylamido)methyl)benzamide], in the experiment on NCIH460 (lung) cells (setting [3]), the GI50 is 52 µM, the LC50 was above 100 µM and the IC (TGI) was above 100 µM. Further, in the experiment on HCT 116 (colon) cells (HCT-116, HCT116, 48 hours, MTT), the GI50 was determined as 4 µM, the CC50 is above 100 µM and the IC (TGI) came out at 15 µM. In addition, in the experiment on U251 (glioma) cells (U-251, U251, 48 hours, MTT), the GI50 was found to be 50 µM, the LC50 (concentration giving 50% net cell kill relative to the time-zero cell count) was above 100 µM and the IC (TGI) stood at 70 µM. Also, in experiment [1] (mean over cell lines), the GI50 is 35.3 µM. In experiment [2], the “HDAC inhibition % (1 μM)” value came out at 34.1% and the “HDAC inhibition % (10 μM)” value is given as 42.6%.

For `CSc1ccc(/C=C(/C(=O)NCc2ccc(C(=O)Nc3ccccc3N)cc2)c2ccc(F)cc2)cc1` [Compound 6, N-(2-Aminophenyl)-4-((3-(4-methylthiophenyl)-2-(4-fluorophenyl)acrylamido)methyl)benzamide], in the experiment with NCIH460 (lung) cells (setting [3]), the GI50 was 8.8 µM, the LC50 stood at 90 µM and the IC (TGI) was 47 µM. Further, in the experiment on HCT 116 (colon) cells (HCT-116, HCT116, 48 hours, MTT), the GI50 turned out to be 4.8 µM, the CC50 was 95.8 µM and the IC (TGI) came out at 46 µM. Moreover, in the experiment on U251 (glioma) cells (U-251, U251, 48 hours, MTT), the concentration for 50% growth inhibition (GI50) is below 0.01 µM, the LC50 (concentration giving 50% net cell kill relative to the time-zero cell count) was 83.2 µM and the IC (TGI) was found to be 22 µM. Also, the concentration for 50% growth inhibition (GI50) in experiment [1] (mean over cell lines) was determined as 4.5 µM. Also, in experiment [2], the “HDAC inhibition % (1 μM)” value came out at 4.2% and the “HDAC inhibition % (10 μM)” value stood at 25.8%.

For the compound `CS(=O)(=O)c1ccc(/C=C(/C(=O)NCCCCCC(=O)Nc2ccccc2N)c2ccc(F)cc2)cc1` [Compound 97, N-(2-Aminophenyl)-6-(2-(4-fluorophenyl)-3-(4-methylsulfonyllphenyl)acrylamido)hexanamide], in the experiment with NCIH460 (lung) cells (setting [3]), the GI50 came out at 56 µM, the LC50 is above 100 µM and the IC (TGI) is above 100 µM. In the experiment on HCT 116 (colon) cells (HCT-116, HCT116, 48 hours, MTT), the GI50 amounted to 6.8 µM, the CC50 was above 100 µM and the IC (TGI) stood at 85 µM. In the experiment with U251 (glioma) cells (U-251, U251, 48 hours, MTT), the GI50 is 6.5 µM, the LC50 (concentration giving 50% net cell kill relative to the time-zero cell count) is 87 µM and the IC (TGI) amounted to 44 µM. In addition, the GI50 in experiment [1] (mean over cell lines) is 23.1 µM. Besides, in experiment [2], the “HDAC inhibition % (1 μM)” value is 10.2% and the “HDAC inhibition % (10 μM)” value was determined as 34.2%.

`COc1ccc(/C=C(/C(=O)NCc2ccc(C(=O)Nc3ccccc3N)cc2)c2ccccc2Cl)cc1OC` [Compound 30, N-(2-Aminophenyl)-4-((3-(3,4-dimethoxyphenyl)-2-(2-chlorophenyl)acrylamido)methyl)benzamide]: in the experiment with NCIH460 (lung) cells (setting [3]), the GI50 is above 100 µM, the LC50 is above 100 µM and the IC (TGI) was above 100 µM. Besides, in the experiment on HCT 116 (colon) cells (HCT-116, HCT116, 48 hours, MTT), the GI50 amounted to 100 µM, the CC50 is above 100 µM and the IC (TGI) is above 100 µM. Besides, in the experiment with U251 (glioma) cells (U-251, U251, 48 hours, MTT), the GI50 was found to be 1 µM, the LC50 (concentration giving 50% net cell kill relative to the time-zero cell count) is above 100 µM and the IC (TGI) was above 100 µM. Further, the concentration for 50% growth inhibition (GI50) in experiment [1] (mean over cell lines) came to 50.5 µM. Further, in experiment [2], the “HDAC inhibition % (1 μM)” value amounted to 7.1% and the “HDAC inhibition % (10 μM)” value worked out at 30.1%.

Consider `COc1cc(/C=C(/C(=O)NCc2ccc(C(=O)Nc3ccccc3N)cc2)c2ccc(F)cc2)ccc1F` [Compound 20, N-(2-Aminophenyl)-4-((3-(4-fluoro-3-methoxyphenyl)-2-(4-fluorophenyl)acrylamido)methyl)benzamide], for which, in the experiment with NCIH460 (lung) cells (setting [3]), the GI50 turned out to be 7.5 µM and the IC (TGI) was 18 µM. For the same compound, in the experiment with HCT 116 (colon) cells (HCT-116, HCT116, 48 hours, MTT), the GI50 stood at 0.3 µM, the CC50 was found to be 80 µM and the IC (TGI) is 20 µM. Further, in the experiment on U251 (glioma) cells (U-251, U251, 48 hours, MTT), the GI50 stood at 1.7 µM and the IC (TGI) stood at 3.5 µM. Moreover, the GI50 in experiment [1] (mean over cell lines) is 3.2 µM. Moreover, in experiment [2], the “HDAC inhibition % (1 μM)” value is 45.1% and the “HDAC inhibition % (10 μM)” value is 46.2%.

For `Nc1ccccc1NC(=O)c1ccc(CNC(=O)/C(=C/c2ccccc2F)c2ccc(Cl)cc2)cc1` [Compound 3, N-(2-Aminophenyl)-4-((3-(2-fluorophenyl)-2-(4-chlorophenyl)acrylamido)methyl)benzamide], in the experiment with NCIH460 (lung) cells (setting [3]), the GI50 amounted to 0.6 µM, the LC50 is above 100 µM and the IC (TGI) worked out at 52 µM. Further, in the experiment with HCT 116 (colon) cells (HCT-116, HCT116, 48 hours, MTT), the GI50 stood at 3.2 µM, the CC50 is 100 µM and the IC (TGI) was determined as 10 µM. Moreover, in the experiment with U251 (glioma) cells (U-251, U251, 48 hours, MTT), the 50% growth inhibitory concentration (GI50) was 16 µM, the LC50 (concentration giving 50% net cell kill relative to the time-zero cell count) worked out at 85 µM and the IC (TGI) amounted to 39 µM. Besides, the GI50 in experiment [1] (mean over cell lines) stood at 6.6 µM. Besides, in experiment [2], the “HDAC inhibition % (1 μM)” value stood at 5.1% and the “HDAC inhibition % (10 μM)” value is 16.4%.

For `COc1ccc(/C=C(/C(=O)NCc2ccc(C(=O)NO)cc2)c2ccc(C)cc2)cc1OC` [Compound 62, 4-((2-(4-Methylphenyl)-3-(3,4-dimethoxyphenyl)acrylamido)methyl)-N-hydroxybenzamide], in the experiment on NCIH460 (lung) cells (setting [3]), the 50% growth inhibitory concentration (GI50) was above 100 µM, the LC50 was above 100 µM and the IC (TGI) is above 100 µM. Further, in the experiment on HCT 116 (colon) cells (HCT-116, HCT116, 48 hours, MTT), the concentration for 50% growth inhibition (GI50) was 90 µM, the CC50 was above 100 µM and the IC (TGI) is above 100 µM. For the same compound, in the experiment on U251 (glioma) cells (U-251, U251, 48 hours, MTT), the GI50 was above 100 µM, the LC50 (concentration giving 50% net cell kill relative to the time-zero cell count) was above 100 µM and the IC (TGI) was above 100 µM. Moreover, in experiment [1] (mean over cell lines), the GI50 amounted to 90 µM. Moreover, in experiment [2], the “HDAC inhibition % (1 μM)” value was found to be 83.2% and the “HDAC inhibition % (10 μM)” value was 100.0%.

As for `Nc1ccccc1NC(=O)c1ccc(CNC(=O)/C(=C/c2ccc(F)c(F)c2)c2ccc(F)cc2)cc1` [Compound 1, N-(2-Aminophenyl)-4-((3-(3,4-difluorophenyl)-2-(4-fluorophenyl)acrylamido)methyl)benzamide], in the experiment on NCIH460 (lung) cells (setting [3]), the concentration for 50% growth inhibition (GI50) is 2.3 µM, the LC50 turned out to be 52 µM and the IC (TGI) amounted to 5.4 µM. Also, in the experiment with HCT 116 (colon) cells (HCT-116, HCT116, 48 hours, MTT), the GI50 was 2.2 µM, the CC50 stood at 27 µM and the IC (TGI) was 4.9 µM. Also, in the experiment with U251 (glioma) cells (U-251, U251, 48 hours, MTT), the concentration for 50% growth inhibition (GI50) stood at 2.8 µM, the LC50 (concentration giving 50% net cell kill relative to the time-zero cell count) is 35 µM and the IC (TGI) turned out to be 4.2 µM. The GI50 in experiment [1] (mean over cell lines) was 2.4 µM. Also, in experiment [2], the “HDAC inhibition % (1 μM)” value was determined as 1.2% and the “HDAC inhibition % (10 μM)” value is listed as 27.8%.
